We go through 17 compounds from US9688695B2, “Imidazothiadiazole and imidazopyrazine derivatives as protease activated receptor 4 (PAR4) inhibitors for treating platelet aggregation” (BRISTOL-MYERS SQUIBB COMPANY, priority 2012, dated 2017).

SMILES strings stand for the structures.

This experiment addresses PAR4 (Homo sapiens (Human), UniProt Q96RI0). The experiment can be described thus: FLIPR assay in PAR4-expressing HEK293 cells (PAR4 antagonist activity, calcium mobilization). The format is cell-based. Conditions: H-Ala-Phe(4-F)-Pro-Gly-Trp-Leu-Val-Lys-Asn-Gly-NH2-induced calcium mobilization. The source says:
The FLIPR assay is an exemplary in vitro assay for measuring the activity of the PAR4 antagonists of the present invention. In this assay, intracellular calcium mobilization is induced in PAR4 expressing cells by a PAR4 agonist and calcium mobilization is monitored. See, e.g., Example A.
HEK293 cells stably expressing PAR4 were generated by a standard method of transfection of human […] cDNA expression vector or by RAGE technology from Athersys Inc. (Cleveland, Ohio) and selected based on PAR4 protein expression of mRNA expression. […] These cells express endogenous PAR1 and can elicit calcium signal upon stimulation with PAR1 agonist peptide.
Counter screens for agonist activity and PAR1 antagonist activity were also performed. Briefly, HEK293 EBNA PAR4 clone 20664.1J cells were plated 24 hrs. prior to experiment in 384 well, Poly-D-Lysine coated, black, clear bottom plates (Greiner Bio-One, Monroe, N.C.). Cells were plated at 20,000 cells/well in […] growth medium and incubated at 37° C. with 5% CO2 overnight. At time of assay, media was replaced with 40 μl 1× Hank's Buffered Saline Solution (HBSS) (with 10 mM HEPES) and 20 μl test compound also diluted in 1×HBSS buffer was added at various concentrations and 0.67% DMSO final concentration on the FDSS for agonist measurement. The cells were then incubated for 30 minutes at room temperature followed by addition of 20 μl of agonist peptide for antagonist measurement on the FDSS.
As indicated above, the FLIPR assay, an in vitro assay, measures the PAR4 antagonist activity of compounds tested as described in Example A. The PRP assay, an in vitro assay, measures the PAR4 antagonist assay of the compounds tested in the presence of plasma proteins and thrombin agonist as described in Example C.

PAR4, sequence (Q96RI0 18-385): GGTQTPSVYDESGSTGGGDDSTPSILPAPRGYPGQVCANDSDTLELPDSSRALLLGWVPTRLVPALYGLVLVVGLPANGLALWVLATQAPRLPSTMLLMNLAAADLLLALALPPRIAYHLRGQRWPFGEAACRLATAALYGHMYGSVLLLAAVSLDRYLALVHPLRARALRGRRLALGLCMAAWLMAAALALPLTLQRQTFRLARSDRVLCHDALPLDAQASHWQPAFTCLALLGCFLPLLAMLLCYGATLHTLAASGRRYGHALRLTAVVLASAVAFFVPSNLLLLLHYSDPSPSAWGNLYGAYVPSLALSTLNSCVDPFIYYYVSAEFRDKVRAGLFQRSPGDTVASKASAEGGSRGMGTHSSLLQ

Regarding `COc1cc(OCc2csc(Nc3ccc(Br)cc3C)n2)c2cc(-c3cn4nc(OC)sc4n3)oc2c1` [Example 108, N-(4-Bromo-2-methylphenyl)-4-(((6-methoxy-2-(2-methoxyimidazo[2,1-b][1,3,4]thiadiazol-6-yl)benzofuran-4-yl)oxy)methyl)thiazol-2-amine], the EC50 worked out at 1.2 nM. `COc1cncc(-c2nc(COc3cc(OC)cc4oc(-c5cn6nc(OC)sc6n5)cc34)cs2)c1` [Example 79]: the EC50 worked out at 2.6 nM. With `COc1cc(OCc2csc(C3=CCOc4ccccc43)n2)c2cc(-c3cn4nc(OC)sc4n3)oc2c1` [Example 169, 6-(4-((2-(2H-Chromen-4-yl)thiazol-4-yl)methoxy)-6-methoxybenzofuran-2-yl)-2-methoxyimidazo[2,1-b][1,3,4]thiadiazole], the EC50 turned out to be 1.3 nM. `COc1cc(OCc2csc(C3CCC(F)(F)CC3)n2)c2cc(-c3cn4nc(C)ccc4n3)oc2c1` [Example 239]: the EC50 was 0.58 nM. As to `COc1cc(OCc2csc(-c3ccc(C(=O)N(C)C(C)C)cc3)n2)c2cc(-c3cn4nc(OC)sc4n3)oc2c1` [Example 310], the 50% effective concentration (EC50) worked out at 0.53 nM.

For `COc1cc(OCc2csc(-c3ccc(COC(C)=O)cc3)n2)c2cc(-c3cn4nc(OC)sc4n3)oc2c1` [Example 68], the EC50 is 0.49 nM. Regarding `COc1cc(OCc2csc(C3(NC(=O)CNC(=O)OC(C)(C)C)CCOCC3)n2)c2cc(-c3cn4nc(OC)sc4n3)oc2c1` [Example 173, tert-Butyl (2-((4-(4-(((6-methoxy-2-(2-methoxyimidazo-[2,1-b][1,3,4]thiadiazol-6-yl)benzofuran-4-yl)oxy)methyl)-thiazol-2-yl)tetrahydro-2H-pyran-4-yl)amino)-2-oxoethyl)carbamate], the EC50 is 0.67 nM.

Take `COc1ccc(-c2nc(COc3cc(OC)cc4oc(-c5cn6nc(C)ccc6n5)cc34)cs2)cc1` [Example 214]: the EC50 stood at 1.2 nM. For the compound `CCC(O)(c1nc(COc2cc(OC)cc3oc(-c4cn5nc(OC)sc5n4)cc23)cs1)C(F)(F)F` (centres unmarked) [Example 138], the EC50 turned out to be 0.82 nM. With `COc1cc(OCc2csc(C3(NC(=O)CN(C)C)CCOCC3)n2)c2cc(-c3cn4nc(OC)sc4n3)oc2c1` [Example 174, 2-(Dimethylamino)-N-(4-(4-(((6-methoxy-2-(2-methoxyimidazo[2,1-b][1,3,4]thiadiazol-6-yl)benzofuran-4-yl)oxy)methyl)-thiazol-2-yl)tetrahydro-2H-pyran-4-yl)acetamide] the figure was 24 nM; with `COc1cc(OCc2csc(Nc3cccc(C#N)c3)n2)c2cc(-c3cn4nc(C)ccc4n3)oc2c1` [Example 260], 7 nM. `COc1cc(OCc2coc(N3CC4CCC(C3)O4)n2)c2cc(-c3cn4nc(OC)sc4n3)oc2c1` [Example 98, 3-(4-(((6-Methoxy-2-(2-methoxyimidazo[2,1-b][1,3,4]thiadiazol-6-yl)benzofuran-4-yl)oxy)methyl)oxazol-2-yl)-8-oxa-3-azabicyclo[3.2.1]octane]: the EC50 was determined as 0.37 nM. In the case of `COc1cc(OCc2csc(-c3ccc(C(=O)N(C)C4COC4)cc3)n2)c2cc(-c3cn4nc(OC)sc4n3)oc2c1` [Example 298], the EC50 was 0.99 nM.

`COc1cc(OCc2csc(-c3ccc(C(=O)NCCN(C)C)cc3)n2)c2cc(-c3cn4nc(OC)sc4n3)oc2c1` [Example 307]: the EC50 came to 24 nM. On to `COc1cc(OCc2csc(N3CCN(S(=O)(=O)c4ccc(C#N)cc4)CC3)n2)c2cc(-c3cn4nc(C)ccc4n3)oc2c1` [Example 237], for which the EC50 was determined as 3.5 nM.

For the compound `COc1cc(OCc2csc(C3(F)CCOCC3)n2)c2cc(-c3cn4nc(C)ccc4n3)oc2c1` [Example 212, 2-(4-Fluorotetrahydro-2H-pyran-4-yl)-4-(((6-methoxy-2-(6-methylimidazo[1,2-b]pyridazin-2-yl)benzofuran-4-yl)oxy)methyl)thiazole], the EC50 is 0.29 nM.

For `COc1cc(OCc2csc(N3CCSCC3)n2)c2cc(-c3cn4nc(C)ccc4n3)oc2c1` [Example 258], the concentration for a half-maximal effect (EC50) amounted to 0.81 nM.
